Measured values from patent US20050070510A1, “Substituted tetracycline compounds as synergistic antifungal agents” (Paratek Pharmaceuticals, Inc., priority 2001, published 2005).

Tested on: COS-1 cells
Assay: In vitro mammalian cytotoxicity assay (Resazurin)

SMILES | In Vitro Cytotoxicity
CN(C)Cc1ccc(-c2ccc(O)c3c2C[C@@]2(N)C[C@@]4(N)[C@H](N(C)C)C(O)=C(C(N)=O)C(=O)[C@@]4(C#N)C(O)=C2C3=O)cc1 [HR] | * (toxicities greater than >25 μg/ml are represented by *)
Cc1ccc(-c2ccc(O)c3c2C[C@@]2(N)C[C@@]4(N)[C@H](N(C)C)C(O)=C(C(N)=O)C(=O)[C@@]4(C#N)C(O)=C2C3=O)cc1C [OJ] | ** (toxicities less than 25 μg/mL are represented by **)
CCCCCOC(=O)NCc1cc(N(C)C)c2c(c1O)C(=O)C1=C(O)[C@]3(C#N)C(=O)C(C(N)=O)=C(O)[C@@H](N(C)C)[C@]3(N)C[C@]1(N)C2 [NF] | ** (toxicities less than 25 μg/mL are represented by **)
CCCCCC(=O)c1ccc(O)c2c1C[C@@]1(N)C[C@@]3(N)[C@H](N(C)C)C(O)=C(C(N)=O)C(=O)[C@@]3(C#N)C(O)=C1C2=O [MO] | ** (toxicities less than 25 μg/mL are represented by **)
CN(C)[C@@H]1C(O)=C(C(N)=O)C(=O)[C@@]2(C#N)C(O)=C3C(=O)c4c(O)ccc(/C=C/c5ccc(Cl)cc5)c4C[C@@]3(N)C[C@@]12N [GV] | * (toxicities greater than >25 μg/ml are represented by *)
CCc1cc(CC)c2c(c1O)C(=O)C1=C(O)[C@]3(C#N)C(=O)C(C(N)=O)=C(O)[C@@H](N(C)C)[C@]3(N)C[C@]1(N)C2 [LF] | ** (toxicities less than 25 μg/mL are represented by **)
CN(C)[C@@H]1C(O)=C(C(N)=O)C(=O)[C@@]2(C#N)C(O)=C3C(=O)c4c(ccc(Nc5nc(-c6cccc([N+](=O)O)c6)cs5)c4O)[C@H](O)[C@@]3(N)[C@H](O)[C@@]12N [DV] | ** (toxicities less than 25 μg/mL are represented by **)
CN(C)c1cc(-c2ccc3c(c2)OCO3)c(O)c2c1C[C@@]1(N)C[C@@]3(N)[C@H](N(C)C)C(O)=C(C(N)=O)C(=O)[C@@]3(C#N)C(O)=C1C2=O [EH] | ** (toxicities less than 25 μg/mL are represented by **)
COc1ccc(-c2ccc3c(c2O)C(=O)C2=C(O)[C@]4(C#N)C(=O)C(C(N)=O)=C(O)[C@@H](N(C)C)[C@]4(N)[C@@H](O)[C@]2(N)C3N)cc1 (stereo partly drawn) [AZ] | ** (toxicities less than 25 μg/mL are represented by **)
CN(C)[C@@H]1C(O)=C(C(N)=O)C(=O)[C@@]2(C#N)C(O)=C3C(=O)c4c(ccc(-c5ccc6c(c5)OCO6)c4O)[C@H](N)[C@@]3(N)[C@H](O)[C@@]12N [CH] | ** (toxicities less than 25 μg/mL are represented by **)
CN(C)[C@@H]1C(O)=C(C(N)=O)C(=O)[C@@]2(C#N)C(O)=C3C(=O)c4c(O)ccc(C#Cc5ccccc5F)c4C[C@@]3(N)C[C@@]12N [GS] | ** (toxicities less than 25 μg/mL are represented by **)
CN(C)c1cc(NC(=O)OC(C)(C)C)c(O)c2c1C[C@@]1(N)C[C@@]3(N)[C@H](N(C)C)C(O)=C(C(N)=O)C(=O)[C@@]3(C#N)C(O)=C1C2=O [DN] | ** (toxicities less than 25 μg/mL are represented by **)
CN(C)c1cc(CCC2CCCC2)c(O)c2c1C[C@@]1(N)C[C@@]3(N)[C@H](N(C)C)C(O)=C(C(N)=O)C(=O)[C@@]3(C#N)C(O)=C1C2=O [KM] | ** (toxicities less than 25 μg/mL are represented by **)
CN(C)[C@@H]1C(O)=C(C(N)=O)C(=O)[C@@]2(C#N)C(O)=C3C(=O)c4c(O)ccc(/C=C/C(=O)OC(C)(C)C)c4C[C@@]3(N)C[C@@]12N [JD] | * (toxicities greater than >25 μg/ml are represented by *)
Cc1ccnc(-c2ccc(O)c3c2C[C@@]2(N)C[C@@]4(N)[C@H](N(C)C)C(O)=C(C(N)=O)C(=O)[C@@]4(C#N)C(O)=C2C3=O)c1 [VE] | ** (toxicities less than 25 μg/mL are represented by **)
CN(C)c1cc(-c2ccc(OC(F)(F)F)cc2)c(O)c2c1C[C@@]1(N)C[C@@]3(N)[C@H](N(C)C)C(O)=C(C(N)=O)C(=O)[C@@]3(C#N)C(O)=C1C2=O [MA] | ** (toxicities less than 25 μg/mL are represented by **)
Cc1ccc(CCc2ccc(O)c3c2CC2CC4[C@H](N(C)C)C(O)=C(C(N)=O)C(=O)[C@@]4(O)C(O)=C2C3=O)cc1 (stereo partly drawn) [Compound HG] | ** (toxicities less than 25 μg/mL are represented by **)
COc1ccc(C(=O)Nc2ccc(-c3ccc(O)c4c3C[C@@]3(N)C[C@@]5(N)C(N(C)C)C(O)=C(C(N)=O)C(=O)[C@@]5(C#N)C(O)=C3C4=O)cc2)cc1 (stereo partly drawn) [QR] | ** (toxicities less than 25 μg/mL are represented by **)
CN(C)[C@@H]1C(O)=C(C(N)=O)C(=O)[C@@]2(C#N)C(O)=C3C(=O)c4c(ccc(-c5ccc(F)cc5)c4O)[C@H](N)[C@@]3(N)[C@H](O)[C@@]12N [BR] | ** (toxicities less than 25 μg/mL are represented by **)
CN(C)[C@@H]1C(O)=C(C(N)=O)C(=O)[C@@]2(C#N)C(O)=C3C(=O)c4c(O)c(F)cc(CN)c4C[C@@]3(N)C[C@@]12N [NQ] | ** (toxicities less than 25 μg/mL are represented by **)
CN(C)[C@@H]1C(O)=C(C(N)=O)C(=O)[C@@]2(C#N)C(O)=C3C(=O)c4c(O)ccc(-c5ccc(NC(=O)CN)cc5)c4C[C@@]3(N)C[C@@]12N [VA] | ** (toxicities less than 25 μg/mL are represented by **)
CN(C)[C@@H]1C(O)=C(C(N)=O)C(=O)[C@@]2(C#N)C(O)=C3C(=O)c4c(O)ccc(C(=O)Cc5ccccc5)c4C[C@@]3(N)C[C@@]12N [MB] | * (toxicities greater than >25 μg/ml are represented by *)
CN(C)c1cc(CNC(=O)Nc2ccccc2)c(O)c2c1C[C@@]1(N)C[C@@]3(N)[C@H](N(C)C)C(O)=C(C(N)=O)C(=O)[C@@]3(C#N)C(O)=C1C2=O [ME] | * (toxicities greater than >25 μg/ml are represented by *)
CN(C)c1cc(/C=C/c2ccccc2)c(O)c2c1[C@H](N)[C@]1(N)C(=C(O)[C@]3(C#N)C(=O)C(C(N)=O)=C(O)[C@@H](N(C)C)[C@]3(N)[C@H]1O)C2=O [BH] | ** (toxicities less than 25 μg/mL are represented by **)
CN(C)c1cc(CNC(=O)C(Cc2ccccc2)N(C)C)c(O)c2c1C[C@@]1(N)C[C@@]3(N)[C@H](N(C)C)C(O)=C(C(N)=O)C(=O)[C@@]3(C#N)C(O)=C1C2=O (stereo partly drawn) [SU] | ** (toxicities less than 25 μg/mL are represented by **)
CCCC(Nc1ccc2c(c1O)C(=O)C1=C(O)[C@]3(C#N)C(=O)C(C(N)=O)=C(O)[C@@H](N(C)C)[C@]3(N)[C@@H](O)[C@]1(N)[C@H]2N)C(=O)OCC (stereo partly drawn) [CG] | ** (toxicities less than 25 μg/mL are represented by **)
CN(C)c1cc(-c2ccc(F)c(F)c2)c(O)c2c1C[C@@]1(N)C[C@@]3(N)[C@H](N(C)C)C(O)=C(C(N)=O)C(=O)[C@@]3(C#N)C(O)=C1C2=O [EY] | ** (toxicities less than 25 μg/mL are represented by **)
CN(C)[C@@H]1C(O)=C(C(N)=O)C(=O)[C@@]2(C#N)C(O)=C3C(=O)c4c(ccc(NC5CCN(Cc6ccccc6)CC5)c4O)C[C@@]3(N)C[C@@]12N [SJ] | * (toxicities greater than >25 μg/ml are represented by *)
CC(=O)OCC(=O)Nc1ccc(-c2ccc(O)c3c2C[C@@]2(N)C[C@@]4(N)[C@H](N(C)C)C(O)=C(C(N)=O)C(=O)[C@@]4(C#N)C(O)=C2C3=O)cc1 [UR] | ** (toxicities less than 25 μg/mL are represented by **)
CN(C)[C@@H]1C(O)=C(C(N)=O)C(=O)[C@@]2(C#N)C(O)=C3C(=O)c4c(O)ccc(C#CCNS(C)(=O)=O)c4C[C@@]3(N)C[C@@]12N [IQ] | * (toxicities greater than >25 μg/ml are represented by *)
